In patent publication US20240425483A1, “INDOLINES AS PROTAC COMPOUNDS” (NeoPhore Limited, priority 2021, published 2024):

Molecular target: T1, PMS2 protein (Homo sapiens, UniProt P54278)
T1 construct: host or cells: SW620 human colorectal carcinoma cells
T1 sequence (P54278 1-862): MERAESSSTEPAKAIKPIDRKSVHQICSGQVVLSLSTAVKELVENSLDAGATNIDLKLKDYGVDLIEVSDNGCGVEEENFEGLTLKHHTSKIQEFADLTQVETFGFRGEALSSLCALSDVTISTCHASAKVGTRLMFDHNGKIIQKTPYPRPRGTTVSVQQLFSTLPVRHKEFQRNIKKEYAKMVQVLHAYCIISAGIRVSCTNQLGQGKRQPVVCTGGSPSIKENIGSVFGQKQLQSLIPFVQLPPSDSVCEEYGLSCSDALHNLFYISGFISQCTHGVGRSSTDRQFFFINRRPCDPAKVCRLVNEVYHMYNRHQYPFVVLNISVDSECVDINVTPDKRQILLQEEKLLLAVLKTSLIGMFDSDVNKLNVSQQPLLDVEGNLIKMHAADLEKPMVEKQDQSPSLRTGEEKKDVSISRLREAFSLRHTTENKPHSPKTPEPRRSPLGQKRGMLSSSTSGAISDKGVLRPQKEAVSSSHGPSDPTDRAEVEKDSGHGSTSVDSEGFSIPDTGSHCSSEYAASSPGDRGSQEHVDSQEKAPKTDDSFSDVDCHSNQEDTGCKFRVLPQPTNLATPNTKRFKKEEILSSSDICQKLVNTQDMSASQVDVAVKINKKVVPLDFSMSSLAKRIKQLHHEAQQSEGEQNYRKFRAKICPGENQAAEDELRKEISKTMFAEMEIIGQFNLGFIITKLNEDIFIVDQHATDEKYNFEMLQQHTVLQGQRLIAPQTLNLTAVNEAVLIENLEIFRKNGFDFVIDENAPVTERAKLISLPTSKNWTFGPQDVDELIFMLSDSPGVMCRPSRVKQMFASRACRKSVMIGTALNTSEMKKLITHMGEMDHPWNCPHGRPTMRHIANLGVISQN
Assay: PROTAC screening in SW620 human colorectal carcinoma cells, PMS2 protein level by JESS Western blot
Format: cell-based
Details: SW-620, 24 h, 1 uM compound
Experimental: PROTAC Screening Protocol Using SW620 Human Colorectal Carcinoma Cells
SVW620 cells (ATCC/[…]) were cultured in T75 Falcon flasks in culture media (F12/DMEM 1:1 media, 10% FCS, +L-G supplement). Cells were split twice a week, for a maximum of 6 weeks. Media was aspirated, and cells washed with 10 mL of sterile PBS. PBS was aspirated, and cells incubated with 1.5 mL TrypLE for up to 5 minutes at 37° C., 5% CO2. Once cells had detached, TrypLE was neutralised with 10 mL culture media and cells mixed 1:1 with Trypan blue and quantified using a Luna cell counter. Cells were then seeded into fresh T75 flasks with 1×10^6 cells and 10 mL culture media.
SW620 cells, cultured and counted as above, were used to seed 12 well plates at a density of 1.5×10^5 cells/well and incubated overnight at 37° C., 5% CO2. Test compounds were solubilized in DMSO to a stock concentration of 10 mM and serially diluted in DMSO and media to their test concentration; the final concentration of DMSO was 0.1% (v/v). Each concentration was tested in triplicate. SW620 cells were incubated with test compound for 24 hours at 37° C., 5% CO2. Media was aspirated from each well, and each well washed with 1 mL ice cold PBS. PBS was then aspirated, and 50 μL of cold lysis buffer (RIPA buffer supplemented with 1× protease inhibitors, Benzonase, MgCl) was added to each well; plates were then incubated on ice for 5 minutes. Cells were scraped using a pipette tip before being transferred to a fresh Eppendorf. Samples were spun at maximum speed in a benchtop centrifuge for 5 minutes at 4° C. and supernatant was then transferred to fresh tubes. Samples were stored at −80° C. until analysis.
Bicinchonininic acid (BCA) protein assay standards (2-0.125 mg/mL BSA) were prepared in advance. 6 μL of each standard was pipetted in duplicate into rows A and B of a 384-well assay plate. Test samples were diluted in lysis buffer (1:3-1:10) in a 384-well plate in duplicate. BCA Reagents were combined 50:1, Part A:Part B and 50 μL added to each well. Plates were incubated for 30 min at 37° C. in a plate incubator and read using a BCA protein 384 protocol on an EnSpire plate reader. Protein concentrations were calculated from a standard curve.
JESS Western Blot Protocol
Protein lysates were prepared using Protein Simple EZ standard pack reagents: 40 μL distilled H2O was added to a DTT tube (clear) and treated with 20 μL 10× sample buffer and 20 μL DTT to 5×MM tube (pink). 20 μL dH2O was added to biotinylated ladder tube (green).
Test samples were prepared by dilution to the required concentration (0.1 mg/mL) in 0.1× sample buffer. 1.25 μL 5× fluorescent master mix from the EZ standard pack was added to 5 μL sample for each lane to be loaded (e.g. 2.5 μL+10 μL if loading same sample into 2 wells). Samples were vortexed, briefly spun down and heated at 95° C. for 5 min in a PCR machine then vortexed again and briefly spun down before loading onto JESS cassettes (catalogue No: SM-W004) according to manufacturer's instructions (https://www.proteinsimple.com/technical_library.html?product=simplewestern&def_list=list). Protein expression was determined by the peak area of the target protein signal. Peak area of the target protein was normalised to peak area of the loading control (actin) and to DMSO control.

[1] = normalised to actin and DMSO control, Table A1

| Structure (SMILES) | remaining activity at 1 µM [1] [%] | remaining activity at 1 µM (upon further testing, Table A2) [%] |
| --- | --- | --- |
| Cc1c(O)cc(O)c(C(=O)N2Cc3ccc(CN4CCN(CCOCCOCCOCCOCCNc5cccc6c5C(=O)N(C5CCC(=O)NC5=O)C6=O)CC4)cc3C2)c1OCC1CCCCC1 (centres unmarked) [Example 6, 4-[2-[2-[2-[2-[2-[4-[[2-[2-(Cyclohexylmethoxy)-4,6-dihydroxy-3-methyl-benzoyl]isoindolin-5-yl]methyl]piperazin-1-yl]ethoxy]ethoxy]ethoxy]ethoxy]ethylamino]-2-(2,6-dioxo-3-piperidyl)isoindoline-1,3-dione] | < 10 | – |
| Cc1ncsc1-c1ccc(CNC(=O)[C@@H]2C[C@@H](O)CN2C(=O)[C@@H](NC(=O)CCCCCCCCC(=O)N2CCN(Cc3ccc4c(c3)CN(C(=O)c3c(O)cc(O)c(C)c3OCC3CCCCC3)C4)CC2)C(C)(C)C)cc1 [Example 29, (2S,4R)-1-[(2S)-2-[[10-[4-[[2-[2-(Cyclohexylmethoxy)-4,6-dihydroxy-3-methyl-benzoyl]isoindolin-5-yl]methyl]piperazin-1-yl]-10-oxo-decanoyl]amino]-3,3-dimethyl-butanoyl]-4-hydroxy-N-[[4-(4-methylthiazol-5-yl)phenyl]methyl]pyrrolidine-2-carboxamide] | < 10 | – |
| Cc1c(O)cc(O)c(C(=O)N2Cc3ccc(CN4CCN(CCOCCOCCOCCOCCNc5cccc6c5C(=O)N(C5CCC(=O)NC5=O)C6=O)CC4)cc3C2)c1OCc1ccccc1 (centres unmarked) [Example 3, 4-((14-(4-((2-(2-(Benzyloxy)-4,6-dihydroxy-3-methylbenzoyl)isoindolin-5-yl)methyl)piperazin-1-yl)-3,6,9,12-tetraoxatetradecyl)amino)-2-(2,6-dioxopiperidin-3-yl)isoindoline-1,3-dione] | 10 to 25 | – |
| Cc1ncsc1-c1ccc(CNC(=O)[C@@H]2C[C@@H](O)CN2C(=O)[C@@H](NC(=O)CCCCCC(=O)N2CCN(Cc3ccc4c(c3)CN(C(=O)c3c(O)cc(O)c(C)c3OCC3CCCCC3)C4)CC2)C(C)(C)C)cc1 [Example 26, (2S,4R)-1-[(2S)-2-[[7-[4-[[2-[2-(Cyclohexylmethoxy)-4,6-dihydroxy-3-methyl-benzoyl]isoindolin-5-yl]methyl]piperazin-1-yl]-7-oxo-heptanoyl]amino]-3,3-dimethyl-butanoyl]-4-hydroxy-N-[[4-(4-methylthiazol-5-yl)phenyl]methyl]pyrrolidine-2-carboxamide] | < 10 | – |
| Cc1c(O)cc(O)c(C(=O)N2Cc3ccc(CN4CCN(CCOCCOCCNc5cccc6c5C(=O)N(C5CCC(=O)NC5=O)C6=O)CC4)cc3C2)c1OCc1ccccc1 (centres unmarked) [Example 2, 4-((2-(2-(2-(4-((2-(2-(Benzyloxy)-4,6-dihydroxy-3-methylbenzoyl)isoindolin-5-yl)methyl)piperazin-1-yl)ethoxy)ethoxy)ethyl)amino)-2-(2,6-dioxopiperidin-3-yl)isoindoline-1,3-dione] | 25 to 50 | 10 to 25 |
| Cc1c(O)cc(O)c(C(=O)N2Cc3ccc(C(=O)N4CCC(CN5CCN(c6cc7c(cc6F)C(=O)N(C6CCC(=O)NC6=O)C7=O)CC5)CC4)cc3C2)c1OCc1ccccc1 (centres unmarked) [Example 23, 5-(4-((1-(2-(2-(Benzyloxy)-4,6-dihydroxy-3-methylbenzoyl)isoindoline-5-carbonyl)piperidin-4-yl)methyl)piperazin-1-yl)-2-(2,6-dioxopiperidin-3-yl)-6-fluoroisoindoline-1,3-dione] | 10 to 25 | – |
| Cc1c(O)cc(O)c(C(=O)N2Cc3ccc(CN4CCN(CCOCCOCCOCCOCCOCCNc5cccc6c5C(=O)N(C5CCC(=O)NC5=O)C6=O)CC4)cc3C2)c1OCC1CCCCC1 (centres unmarked) [Example 7, 4-[2-[2-[2-[2-[2-[2-[4-[[2-[2-(Cyclohexylmethoxy)-4,6-dihydroxy-3-methyl-benzoyl]isoindolin-5-yl]methyl]piperazin-1-yl]ethoxy]ethoxy]ethoxy]ethoxy]ethoxy]ethylamino]-2-(2,6-dioxo-3-piperidyl)isoindoline-1,3-dione] | 10 to 25 | – |
